The record followed here is patent US8703815B2, “Small molecules that covalently modify transthyretin” (The Scripps Research Institute, priority 2009, dated 2014).

Values joined by “and” are separate entries in the source; they are usually repeats but may differ in a detail not shown here. Identical values can stand only once.

The assay deals with T1, WT-TTR (Homo sapiens, UniProt P02766).
T1 construct: composed of 127-residue β-sheet-rich subunits; made in house; host or cells: E. coli
Nature of the assay: Kinetics of the A2-TTR conjugation reaction (fluorescence). The following applies: A2 6 μM. It is filed as binding. How it is done:
Because the one-chain, one-binding-site TTR tag being created is envisioned to be useful for doing pulse-chase studies in the secretory pathway of eukaryotic cells, the kinetics of WT-TTR modification by A2 in concentrated cell lysate was investigated. […] We added WT-TTR at a final concentration of 2 μM (tetramer) to the HeLa cell lysate (2 μg/μL total protein concentration) to which A2 (6 μM) was added. At 37° C., the conjugate formed with a t50 of 18 minutes, within experimental error of the t50 (19 minutes) of TTR (2 μM) conjugate formation with A2 (6 μM) in phosphate buffer (pH 7).
The covalent TTR modifier A2 (1 μL of 0.6 mM solution in DMSO, final concentration: 6 μM) was added to 90 μL of HeLa cell lysate (final protein concentration: 2 μg/μL) and 10 μL of WT-TTR (20 μM in pH 7.0 phosphate buffer, final concentration: 2 μM). The time-dependent fluorescence change of the conjugate derived from A2 was monitored utilizing a microplate spectrophotometer reader (Gemini SpectraMax®, Molecular Devices, Sunnyvale, Calif.) for 3 hours at 37° C. The fluorescence (λex=328 nm and λem=430 nm) was measured from the bottom of the plate without shaking.

Consider `Cc1cc(/C=C/c2cc(C(=O)Sc3ccc(F)cc3)cc(N(C)C)c2)cc(C)c1O` [Compound A2, (E)-S-4-fluorophenyl 3-(dimethylamino)-5-(4-hydroxy-3,5-dimethylstyryl)-benzothioate], for which the “t50 of conjugate formation in phosphate buffer (pH 7)” value (TTR 2 μM) is 19 minutes. Besides, the “t50 of conjugate formation in HeLa cell lysate” value (WT-TTR 2 μM, lysate 2 μg/μL, 37° C.) is 18 min and 20 min.
